# Patent publication US20170190671A1, “BIS(ARYL)CATECHOL DERIVATIVES AS HERBICIDES” (E I DU PONT DE NEMOURS AND COMPANY, priority 2014, published 2017)
# What was measured:
# Assay type in all cases: in vivo
# Details in all cases: scale 0 to 100
# [1] = test system: cocklebur (common cocklebur, Xanthium strumarium); assay: Test E preemergence
# Method in brief: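 Visual ratings from 0 = no effect to 100 = complete control, scored against untreated controls after 14 to 21 days in the greenhouse. Compounds, in a non-phytotoxic solvent mix with surfactant, went onto silt loam soil right after sowing (preemergence) or onto 2–18 cm plants at the 1- to 4-leaf stage (postemergence).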
# [2] = test system: palmer pigweed (Amaranthus palmeri); assay: Test E postemergence
# Text: (§1) Seeds of plant species selected from corn (Zea mays), soybean (Glycine max), velvetleaf (Abutilon theophrasti), cocklebur (common cocklebur, Xanthium strumarium), lambsquarters (Chenopodium album), wild poinsettia (Euphorbia heterophylla), palmer pigweed (Amaranthus palmeri), waterhemp (common waterhemp, Amaranthus rudis), surinam grass (Brachiaria decumbens), large (Lg) crabgrass (Digitaria sanguinalis), Brazilian crabgrass (Digitaria horizontalis), fall panicum (Panicum dichotomiflorum), giant foxtail (Setaria faberii), green foxtail (Setaria viridis), goosegrass (Eleusine indica), johnsongrass (Sorghum halepense), ragweed (common ragweed, Ambrosia elatior), barnyardgrass (Echinochloa crus-galli), sandbur (southern sandbur, Cenchrus echinatus), arrowleaf sida (Sida rhombifolia), Italian ryegrass (Lolium multiflorum), dayflower (Virginia (VA) dayflower, Commelina virginica), field bindweed (Convolvulus arvensis), morningglory (Ipomoea coccinea), nightshade (eastern black nightshade, Solanum ptycanthum), kochia (Kochia scoparia), yellow nutsedge (Cyperus esculentus), horseweed (Conyza canadensis), and hairy beggarticks (Bidens pilosa), were planted into a silt loam soil and treated preemergence with test chemicals formulated in a non-phytotoxic solvent mixture which included a surfactant.
# (§2) At the same time, plants from these crop and weed species and also waterhemp_RES1, (ALS & Triazine resistant common waterhemp, Amaranthus rudis), and waterhemp_RES2, (ALS & HPPD resistant common waterhemp, Amaranthus rudis) were planted in pots containing Redi-Earth® planting medium (Scotts Company, 14111 Scottslawn Road, Marysville, Ohio 43041) comprising spaghnum peat moss, vermiculite, wetting agent and starter nutrients were treated with postemergence applications of test chemicals formulated in the same manner. Plants ranged in height from 2 to 18 cm for postemergence treatments (1- to 4-leaf stage). Treated plants and controls were maintained in a greenhouse for 14 to 21 days, after which time all species were compared to controls and visually evaluated. Plant response ratings, summarized in Table E, are based on a scale of 0 to 100 where 0 is no effect and 100 is complete control. A dash (-) response means no test result.
# [3] = test system: waterhemp (common waterhemp, Amaranthus rudis); assay: Test E postemergence
# Text: as §1, §2
# [4] = test system: field bindweed (Convolvulus arvensis); assay: Test E postemergence
# Text: as §1, §2
# [5] = test system: horseweed (Conyza canadensis); assay: Test E postemergence
# Text: as §1, §2
# corn (Zea mays) = assay: Test E postemergence
# Text: as §1, §2
# [6] = test system: dayflower (Virginia (VA) dayflower, Commelina virginica); assay: Test E postemergence
# Text: as §1, §2
# [7] = test system: barnyardgrass (Echinochloa crus-galli); assay: Test E postemergence
# Text: as §1, §2
# [8] = test system: ragweed (common ragweed, Ambrosia elatior); assay: Test E postemergence
# Text: as §1, §2
# [9] = test system: wild poinsettia (Euphorbia heterophylla); assay: Test E postemergence
# Text: as §1, §2
# [10] = test system: hairy beggarticks (Bidens pilosa); assay: Test E postemergence
# Text: as §1, §2
# [11] = test system: Brazilian crabgrass (Digitaria horizontalis); assay: Test E postemergence
# Text: as §1, §2
# [12] = test system: arrowleaf sida (Sida rhombifolia); assay: Test E postemergence
# Text: as §1, §2
# soybean (Glycine max) = assay: Test E postemergence
# Text: as §1, §2
# [13] = test system: waterhemp_RES2 (ALS & HPPD resistant common waterhemp, Amaranthus rudis); assay: Test E postemergence
# Text: as §1, §2
# [14] = test system: sandbur (southern sandbur, Cenchrus echinatus); assay: Test E postemergence
# Text: as §1, §2
# [15] = test system: Italian ryegrass (Lolium multiflorum); assay: Test E postemergence
# Text: as §1, §2
# [16] = test system: fall panicum (Panicum dichotomiflorum); assay: Test E postemergence
# Text: as §1, §2
# [17] = test system: waterhemp_RES1 (ALS & Triazine resistant common waterhemp, Amaranthus rudis); assay: Test E postemergence
# Text: as §1, §2
# kochia (Kochia scoparia) = assay: Test E postemergence
# Text: as §1, §2
smiles,measurement,setting,value
"Clc1cnc(Oc2cccc(Br)c2Oc2ncc(Cl)cn2)nc1 [Compound 19, 2,2′-[[3-bromo-1,2-phenylene]bis(oxy)]bis[5-chloropyrimidine]]","Plant response rating, Cocklebur",[1]; 16 g ai/ha,0
same,"Plant response rating, Cocklebur",[1]; 62 g ai/ha,0
same,"Plant response rating, Cocklebur",[1]; 125 g ai/ha,0
"Fc1cccc(Oc2ncc(Cl)cn2)c1Oc1ncc(Cl)cn1 [Compound 21, 2,2′-[[3-fluoro-1,2-phenylene]bis(oxy)]bis[5-chloropyrimidine]]","Plant response rating, Cocklebur",[1]; 31 g ai/ha,35
same,"Plant response rating, Cocklebur",[1]; 62 g ai/ha,40
same,"Plant response rating, Cocklebur",[1]; 125 g ai/ha,50
"Fc1cccc(Oc2ncc(C(F)(F)F)cn2)c1Oc1ncc(Cl)cn1 [Compound 42, 5-chloro-2-[2-fluoro-6-[[5-(trifluoromethyl)-2-pyrimidinyl]oxy]phenoxy]pyrimidine]","Plant response rating, Pigweed, Palmer",[2]; 16 g ai/ha,80
same,"Plant response rating, Pigweed, Palmer",[2]; 31 g ai/ha,85
same,"Plant response rating, Pigweed, Palmer",[2]; 62 g ai/ha,95
same,"Plant response rating, Pigweed, Palmer",[2]; 125 g ai/ha,100
same,"Plant response rating, Waterhemp",[3]; 16 g ai/ha,75
same,"Plant response rating, Waterhemp",[3]; 31 g ai/ha,85
same,"Plant response rating, Waterhemp",[3]; 62 g ai/ha,90
same,"Plant response rating, Waterhemp",[3]; 125 g ai/ha,95
same,"Plant response rating, Field Bindweed",[4]; 16 g ai/ha,40
same,"Plant response rating, Field Bindweed",[4]; 31 g ai/ha,50
same,"Plant response rating, Field Bindweed",[4]; 62 g ai/ha,60
same,"Plant response rating, Field Bindweed",[4]; 125 g ai/ha,70
same,"Plant response rating, Horseweed",[5]; 16 g ai/ha,0
same,"Plant response rating, Horseweed",[5]; 31 g ai/ha,0
same,"Plant response rating, Horseweed",[5]; 62 g ai/ha,10
same,"Plant response rating, Horseweed",[5]; 125 g ai/ha,10
same,"Plant response rating, Corn",corn (Zea mays); 16 g ai/ha,5
same,"Plant response rating, Corn",corn (Zea mays); 31 g ai/ha,10
same,"Plant response rating, Corn",corn (Zea mays); 62 g ai/ha,10
same,"Plant response rating, Corn",corn (Zea mays); 125 g ai/ha,15
same,"Plant response rating, Dayflower, VA",[6]; 16 g ai/ha,35
same,"Plant response rating, Dayflower, VA",[6]; 31 g ai/ha,50
same,"Plant response rating, Dayflower, VA",[6]; 62 g ai/ha,70
same,"Plant response rating, Dayflower, VA",[6]; 125 g ai/ha,75
same,"Plant response rating, Barnyardgrass",[7]; 16 g ai/ha,0
same,"Plant response rating, Barnyardgrass",[7]; 31 g ai/ha,0
same,"Plant response rating, Barnyardgrass",[7]; 62 g ai/ha,10
same,"Plant response rating, Barnyardgrass",[7]; 125 g ai/ha,20
same,"Plant response rating, Ragweed",[8]; 16 g ai/ha,10
same,"Plant response rating, Ragweed",[8]; 31 g ai/ha,25
same,"Plant response rating, Ragweed",[8]; 62 g ai/ha,50
same,"Plant response rating, Ragweed",[8]; 125 g ai/ha,60
same,"Plant response rating, Poinsettia, Wild",[9]; 16 g ai/ha,50
same,"Plant response rating, Poinsettia, Wild",[9]; 31 g ai/ha,60
same,"Plant response rating, Poinsettia, Wild",[9]; 62 g ai/ha,70
same,"Plant response rating, Poinsettia, Wild",[9]; 125 g ai/ha,70
same,"Plant response rating, Beggarticks",[10]; 16 g ai/ha,50
same,"Plant response rating, Beggarticks",[10]; 31 g ai/ha,60
same,"Plant response rating, Beggarticks",[10]; 62 g ai/ha,60
same,"Plant response rating, Beggarticks",[10]; 125 g ai/ha,70
same,"Plant response rating, Crabgrass, Brazil",[11]; 16 g ai/ha,10
same,"Plant response rating, Crabgrass, Brazil",[11]; 31 g ai/ha,10
same,"Plant response rating, Crabgrass, Brazil",[11]; 62 g ai/ha,20
same,"Plant response rating, Crabgrass, Brazil",[11]; 125 g ai/ha,30
same,"Plant response rating, Arrowleaf Sida",[12]; 16 g ai/ha,75
same,"Plant response rating, Arrowleaf Sida",[12]; 31 g ai/ha,85
same,"Plant response rating, Arrowleaf Sida",[12]; 62 g ai/ha,95
same,"Plant response rating, Arrowleaf Sida",[12]; 125 g ai/ha,98
same,"Plant response rating, Soybean",soybean (Glycine max); 16 g ai/ha,50
same,"Plant response rating, Soybean",soybean (Glycine max); 31 g ai/ha,60
same,"Plant response rating, Soybean",soybean (Glycine max); 62 g ai/ha,95
same,"Plant response rating, Soybean",soybean (Glycine max); 125 g ai/ha,95
same,"Plant response rating, Waterhemp_RES2",[13]; 16 g ai/ha,50
same,"Plant response rating, Waterhemp_RES2",[13]; 31 g ai/ha,65
same,"Plant response rating, Waterhemp_RES2",[13]; 62 g ai/ha,85
same,"Plant response rating, Waterhemp_RES2",[13]; 125 g ai/ha,95
same,"Plant response rating, Sandbur",[14]; 16 g ai/ha,0
same,"Plant response rating, Sandbur",[14]; 31 g ai/ha,0
same,"Plant response rating, Sandbur",[14]; 62 g ai/ha,0
same,"Plant response rating, Sandbur",[14]; 125 g ai/ha,10
same,"Plant response rating, Ryegrass, Italian",[15]; 16 g ai/ha,0
same,"Plant response rating, Ryegrass, Italian",[15]; 31 g ai/ha,10
same,"Plant response rating, Ryegrass, Italian",[15]; 62 g ai/ha,20
same,"Plant response rating, Ryegrass, Italian",[15]; 125 g ai/ha,40
same,"Plant response rating, Panicum, Fall",[16]; 16 g ai/ha,10
same,"Plant response rating, Panicum, Fall",[16]; 31 g ai/ha,15
same,"Plant response rating, Panicum, Fall",[16]; 62 g ai/ha,20
same,"Plant response rating, Panicum, Fall",[16]; 125 g ai/ha,30
same,"Plant response rating, Waterhemp_RES1",[17]; 16 g ai/ha,60
same,"Plant response rating, Waterhemp_RES1",[17]; 31 g ai/ha,75
same,"Plant response rating, Waterhemp_RES1",[17]; 62 g ai/ha,75
same,"Plant response rating, Waterhemp_RES1",[17]; 125 g ai/ha,90
same,"Plant response rating, Kochia",kochia (Kochia scoparia); 16 g ai/ha,70
same,"Plant response rating, Kochia",kochia (Kochia scoparia); 31 g ai/ha,80
same,"Plant response rating, Kochia",kochia (Kochia scoparia); 62 g ai/ha,95
same,"Plant response rating, Kochia",kochia (Kochia scoparia); 125 g ai/ha,95
"Fc1cccc(Oc2ncc(Cl)cn2)c1Oc1ncc(C(F)(F)F)cn1 [Compound 43, 5-chloro-2-[5-fluoro-6-[[5-(trifluoromethyl)-2-pyrimidinyl]oxy]phenoxy]pyrimidine]","Plant response rating, Pigweed, Palmer",[2]; 31 g ai/ha,80
same,"Plant response rating, Pigweed, Palmer",[2]; 125 g ai/ha,90
same,"Plant response rating, Waterhemp",[3]; 31 g ai/ha,65
same,"Plant response rating, Waterhemp",[3]; 125 g ai/ha,95
same,"Plant response rating, Field Bindweed",[4]; 31 g ai/ha,55
same,"Plant response rating, Field Bindweed",[4]; 125 g ai/ha,70
same,"Plant response rating, Horseweed",[5]; 31 g ai/ha,0
same,"Plant response rating, Horseweed",[5]; 125 g ai/ha,10
same,"Plant response rating, Corn",corn (Zea mays); 31 g ai/ha,5
same,"Plant response rating, Corn",corn (Zea mays); 125 g ai/ha,15
same,"Plant response rating, Dayflower, VA",[6]; 31 g ai/ha,50
same,"Plant response rating, Dayflower, VA",[6]; 125 g ai/ha,70
same,"Plant response rating, Barnyardgrass",[7]; 31 g ai/ha,0
same,"Plant response rating, Barnyardgrass",[7]; 125 g ai/ha,15
same,"Plant response rating, Ragweed",[8]; 31 g ai/ha,50
same,"Plant response rating, Ragweed",[8]; 125 g ai/ha,60
same,"Plant response rating, Poinsettia, Wild",[9]; 31 g ai/ha,60
same,"Plant response rating, Poinsettia, Wild",[9]; 125 g ai/ha,75
same,"Plant response rating, Beggarticks",[10]; 31 g ai/ha,50
same,"Plant response rating, Beggarticks",[10]; 125 g ai/ha,60
same,"Plant response rating, Crabgrass, Brazil",[11]; 31 g ai/ha,25
same,"Plant response rating, Crabgrass, Brazil",[11]; 125 g ai/ha,40
same,"Plant response rating, Arrowleaf Sida",[12]; 31 g ai/ha,80
same,"Plant response rating, Arrowleaf Sida",[12]; 125 g ai/ha,95
same,"Plant response rating, Soybean",soybean (Glycine max); 31 g ai/ha,70
same,"Plant response rating, Soybean",soybean (Glycine max); 125 g ai/ha,95
same,"Plant response rating, Waterhemp_RES2",[13]; 31 g ai/ha,65
same,"Plant response rating, Waterhemp_RES2",[13]; 125 g ai/ha,80
same,"Plant response rating, Sandbur",[14]; 31 g ai/ha,0
same,"Plant response rating, Sandbur",[14]; 125 g ai/ha,10
same,"Plant response rating, Ryegrass, Italian",[15]; 31 g ai/ha,0
same,"Plant response rating, Ryegrass, Italian",[15]; 125 g ai/ha,20
same,"Plant response rating, Panicum, Fall",[16]; 31 g ai/ha,40
same,"Plant response rating, Panicum, Fall",[16]; 125 g ai/ha,50
same,"Plant response rating, Waterhemp_RES1",[17]; 31 g ai/ha,65
same,"Plant response rating, Waterhemp_RES1",[17]; 125 g ai/ha,80
same,"Plant response rating, Kochia",kochia (Kochia scoparia); 31 g ai/ha,75
same,"Plant response rating, Kochia",kochia (Kochia scoparia); 125 g ai/ha,95
